{"source": "patent US20080076827A1", "about": "“Treatment of Inflammatory Bowel Disease” (priority 2004, published 2008)", "key": {"TNFα": {"test_system": "TNFα", "experiment": "LPS-induced TNF alpha release in mice", "format": "in vivo, Balb C ByJ mice", "details": "oral route, 30 min before 1 mg/kg i.p. LPS; serum 2 hours after LPS; ELISA", "protocol": "7 week-old Balb C ByJ mice (24-28 g) were administered, either by i.p. (5 ml/kg) or oral (10 ml/kg) administration, with vehicle or test article. 30 minutes later these animals were challenged with an intraperitoneal injection of 1 mg/kg LPS. 2 hours after LPS challenge, blood samples were collected under light isoflurane anaesthesia into normal tubes by retro-orbital puncture. Samples were allowed to clot at room temperature and then spun at 6000 g for 3 min at 4° C. Serum was stored at −20° C. until use. Serum TNFα and IL-10 levels were analysed in duplicate by ELISA technique."}, "[1]": {"test_system": "dextran sulphate-induced colonic inflammation", "experiment": "Dextran sulphate-induced IBD model", "format": "in vivo, BDF1 male mice", "details": "rectal route twice a day for 5 days", "protocol": "8-10 week-old BDF1 male mice (˜30 g) were housed in normal conditions. At the start of the study, normal water was exchanged for a 2.5% dextran sulphate solution to induce colonic inflammation. Concurrently actarit and the positive control budesonide were administered rectally twice a day for 5 days. On day 6 the animals were sacrificed and the large intestine was removed. The lower two-thirds were assessed for histological severity (scoring system; 1 mild to 4 severe)."}}, "data": [{"compound": "CC(=O)Nc1ccc(CC(=O)O)cc1", "note": "[actarit, 4-(acetylamino)benzeneacetic acid]", "values": [{"measurement": "inhibition of serum TNFalpha levels after intraperitoneal LPS administration", "setting": "TNFα", "value": "dose-dependant inihibition of TNFalpha levels"}, {"measurement": "pathological and histological lesions", "setting": "[1]; 2.5% dextran sulphate in drinking water, large intestine assessed day 6", "value": "can ameliorate pathological and histological lesions"}, {"measurement": "gross histological scores (scoring system; 1 mild to 4 severe)", "setting": "[1]; 2.5% dextran sulphate, compared with 0.1 mg/kg rectal budesonide", "value": "reduced gross histological scores induced by dextran sulphate in the drinking water of BDF1 mice, over and above the effect seen for 0.1 mg/kg rectal budesonide"}]}]}
